Results as given in patent publication US20250281540A1, “Methods for Haematopoietic Stem Cell Transplantation” (Ospedale San Raffaele S.r.l., priority 2022, published 2025).

Legend:
WBC, LSK and SLAM HSC [1] = assay: Mobilization protocols in Cd40Ig^−/− mice (PB and BM counts); format: in vivo
Description: To investigate the therapeutic potential of M-HSCT, we took advantage of Cd40Ig^−/− mice, which faithfully recapitulate the phenotype of the human primary combined immunodeficiency Hyper IgM Syndrome 1 (HIGM-1; Renshaw, B. R., et al. (1994). J Exp Medicine 180, 1889-1900). Because G-CSF treatment may have a detrimental effect on the BM niche, we investigated the efficiency of mobilization protocols differing for its presence or absence, the G-CSF dose and the duration and combination with other drugs (FIG. 2A).
(§1) Blood samples were also analysed with the hemocytometer Sysmex KX-21N (Block scientific, Sysmex corporation) to quantify absolute numbers.
Different protocols were tested in Cd40Ig^−/− mice: (i) s.c. pump delivering 250 μg/kg/day of G-CSF for 7 days (G7); (ii) s.c. pump delivering 250 μg/kg/day of G-CSF for 7 days, with i.p. injections of AMD3100 (5 mg/kg/day) on day 6 and 7 (G7A); (iii) s.c. pump delivering 250 μg/kg/day of G-CSF for 7 days, with i.p. injections of AMD3100 (5 mg/kg/day) and BIO5192 (1 mg/kg/day) on day 6 and 7 (G7AB); (iv) s.c. pump delivering 125 μg/kg/day of G-CSF for 7 days, with i.p. injections of AMD3100 (5 mg/kg/day) and BIO5192 (1 mg/kg/day) on day 6 and 7 (G7AB-H); (v) G-CSF delivered by i.p. injections (125 μg/kg) every 12 hours for four days, with AMD3100 s.c. injections (5 mg/kg) 14 hours after the last dose of G-CSF (G5A); (vi) G-CSF delivered by i.p. injections (125 μg/kg) every 12 hours for four days, with AMD3100 (5 mg/kg) and BIO5192 (1 mg/kg) s.c. injections 14 hours after the last dose of G-CSF (G5AB); (vii) s.c. pump delivering 250 μg/kg/day of G-CSF for 3 days, with i.p. injections of AMD3100 (5 mg/kg/day) and BIO5192 (1 mg/kg/day) on day 6 and 7 (G3AB); (viii) s.c. pump delivering 125 μg/kg/day of G-CSF for 3 days, with i.p. injections of AMD3100 (5 mg/kg/day) and BIO5192 (1 mg/kg/day) on day 6 and 7 (G3AB-H); and (ix) AMD3100 (5 mg/kg/day) and BIO5192 (1 mg/kg/day) i.p. injected for three days.
Bone marrow vacancy and estimated chimerism were calculated based on the following formulas in Cd40Ig^−/− mice (summarized in table below): • To determine the total number of SLAM HSC per mouse at steady state (FIG. 2G, left panel), lower limbs (which account for 20% of the total BM) were collected in a defined volume and counted, paralleled with their characterization through FACS. We found 2500 SLAM HSC/lower limbs, therefore reaching a total of 12,500 SLAM HSC/mouse (2500*100/20). This number is in accordance with other published papers (Chen, J., et al. (2008). Experimental hematology, 36(10), 1236-1243; Karpova, D., et al. (2017). Blood, 129(21), 2939-2949; and Singh, P., et al. (2020). Stem cells (Dayton, Ohio), 38(7), 849-859). • To determine the total number of SLAM HSC that egressed from the BM post-G7AB mobilization, we examined the BM of mobilized mice. 1100 SLAM HSC were recovered in the lower limbs, reaching a total of 5500 SLAM HSC in the BM of mobilized mice. Therefore, to determine the number of SLAM HSC egressed, the number of SLAM HSC present post-mobilization was subtracted from the total number of SLAM HSC present in the steady state mouse, leading to an assessment of 7000 SLAM HSC egressing from the BM (12500-5500). • The mobilized SLAM HSC/mL was calculated based on the bleeding performed at the peak of mobilization in mobilized mice (FIG. 2G, right panel). The blood was analyzed through hematocytometer (WBC/mL) and FACS staining (% subpopulation). […]

[2] = test system: GFP+ cells within the hCD45+ population; assay: M-HSCT in hematochimeric mice with drug-resistant CXCR4 variant; AMD3465 protocol; format: in vivo, NSGW41 or NBSGW mice
Description: FIG. 12. […] NSGW41 or NBSGW mice were humanized with human mobilized peripheral blood CD34+ cells until 10% chimerism was achieved. Mice were then mobilized with G-CSF for 7 days through subcutaneous pump implantations and with two injections of AMD3100 and BIO5192 at day 6 and 7. For the second transplant, GFP lentiviral vector-transduced cells from the same donor used to humanize the mice were electroporated with either CXCR4 wild type or CXCR4^D262N variant. The donor cells were then transplanted either at 3 h or immediately after the last injection of AMD3100. • (B) Human chimerism over time after mobilization, expressed as % of human CD45+ cells present in peripheral blood (right panel), and exchange efficiency (left panel) expressed as % of GFP+ cells within the hCD45+ population. CXCR4 Var=CXCR4 D262N. • (C) Mobilization efficiency of the standard protocol (G7AB) or the modified protocol with AMD3465 (G7AB*) measured as white blood cell count (WBC, left panel), and human CD34+CD38− cells (right panel). • (D) Human chimerism over time after mobilization, expressed as % of hCD45+ cells in peripheral blood (right panel), and exchange efficiency (left panel) expressed as % of GFP+ cells within the hCD45+ population. […]

WBC, LSK and SLAM HSC [3] = assay: Mobilization of WBC, LSK and SLAM HSC into the circulation of C57BL/6J CD45.2 mice; format: in vivo; conditions: addition of BIO5192 to G7A (G7AB)
Experimental: We tested two mobilization regimens in mice, one modeling a clinically approved protocol using G-CSF and AMD3100 (G7A), and the other one also comprising BIO5192 (G7AB). C57BL/6J CD45.2 mice were treated with G-CSF using a subcutaneous pump for a week combined with either AMD3100, or the combination of AMD3100 and BIO5192, delivered intraperitoneally at day 6 and 7 (FIG. 1A; FIG. 6B).
The addition of BIO5192 led to a higher mobilization of WBC, LSK and SLAM HSC, leading to an additional 2-fold increase of SLAM HSC over G7A levels.
as §1

CD45.1 Lin^− donor cells = assay: M-HSCT: donor CD45.1 chimerism after mobilization of CD45.2 recipients; format: in vivo, C57BL/6J CD45.2 mice; conditions: addition of BIO5192 to the G-CSF/AMD3100 protocol (G7AB); 2×10^6 CD45.1 Lin^− cells; PB
Description: To test if these levels of mobilization, and the subsequent BM niche availability, were sufficient to allow engraftment of donor cells, 2×10^6 CD45.1 lineage negative (Lin^−) cells, purified from the BM, were transplanted into CD45.2 congenic recipients after the last injection of AMD3100 or AMD3100/BIO5192 (FIG. 1A, C; FIG. 6D).
Donor mice between 6 and 10 weeks of age were euthanized by CO2, and BM cells were retrieved from femurs, tibias, and humeri. HSPCs were purified by Lin− selection using the mouse Lineage Cell Depletion Kit (Miltenyi Biotec) according to the manufacturer's instructions. Cells were then cultured (for 2 hours or overnight) in serum-free StemSpan medium (StemCell Technologies) containing penicillin, streptomycin, glutamine, and a combination of mouse cytokines (20 ng/ml IL-3, 100 ng/ml SCF, 100 ng/ml Flt-3L, 50 ng/ml TPO all from PeproTech), at a concentration of 2-5×10^6 cells.ml^−1. Purified Lin^− cells were transplanted at a total dose of 2×10^6 cells/mouse into 8 to 12-week-old mobilized mice, three hours after the last injection of AMD3100 and/or Bio5192. Serial collections of blood from the retro-orbital vein were performed to monitor the hematological parameters and donor cell engraftment. At the end of the experiment, BM, thymus and spleen, and lymph nodes were harvested and analyzed.

VLA-4 = VLA-4 (Homo sapiens, UniProt P05556+P13612); conditions: VLA-4 versus α4β7 integrin; Ramirez et al. 2009; cited from earlier work
MMP9 = assay: ELISA on BM extracellular extracts, MMP9; format: in vivo, Cd40Ig^−/− mice
Experimental: (§2) For ELISA performed on BM matrix, femurs and tibias were repeatedly flushed with 1 mL of cold PBS. Cells were pelleted by centrifugation at 300 g for 10 minutes at 4° C., supernatant was then collected and stored at −80° C. ELISA has been performed following manufacturer instruction after a 1:100 dilution with 1× Assay Diluent for MMP9 (Thermo Scientific) or on undiluted BM matrix for CXCL12 (Sigma-Aldrich).

CXCL12 = assay: ELISA on BM extracellular extracts, CXCL12; format: in vivo, Cd40Ig^−/− mice
Experimental: as §2

Chain of VLA-4 (P13612 34-1032): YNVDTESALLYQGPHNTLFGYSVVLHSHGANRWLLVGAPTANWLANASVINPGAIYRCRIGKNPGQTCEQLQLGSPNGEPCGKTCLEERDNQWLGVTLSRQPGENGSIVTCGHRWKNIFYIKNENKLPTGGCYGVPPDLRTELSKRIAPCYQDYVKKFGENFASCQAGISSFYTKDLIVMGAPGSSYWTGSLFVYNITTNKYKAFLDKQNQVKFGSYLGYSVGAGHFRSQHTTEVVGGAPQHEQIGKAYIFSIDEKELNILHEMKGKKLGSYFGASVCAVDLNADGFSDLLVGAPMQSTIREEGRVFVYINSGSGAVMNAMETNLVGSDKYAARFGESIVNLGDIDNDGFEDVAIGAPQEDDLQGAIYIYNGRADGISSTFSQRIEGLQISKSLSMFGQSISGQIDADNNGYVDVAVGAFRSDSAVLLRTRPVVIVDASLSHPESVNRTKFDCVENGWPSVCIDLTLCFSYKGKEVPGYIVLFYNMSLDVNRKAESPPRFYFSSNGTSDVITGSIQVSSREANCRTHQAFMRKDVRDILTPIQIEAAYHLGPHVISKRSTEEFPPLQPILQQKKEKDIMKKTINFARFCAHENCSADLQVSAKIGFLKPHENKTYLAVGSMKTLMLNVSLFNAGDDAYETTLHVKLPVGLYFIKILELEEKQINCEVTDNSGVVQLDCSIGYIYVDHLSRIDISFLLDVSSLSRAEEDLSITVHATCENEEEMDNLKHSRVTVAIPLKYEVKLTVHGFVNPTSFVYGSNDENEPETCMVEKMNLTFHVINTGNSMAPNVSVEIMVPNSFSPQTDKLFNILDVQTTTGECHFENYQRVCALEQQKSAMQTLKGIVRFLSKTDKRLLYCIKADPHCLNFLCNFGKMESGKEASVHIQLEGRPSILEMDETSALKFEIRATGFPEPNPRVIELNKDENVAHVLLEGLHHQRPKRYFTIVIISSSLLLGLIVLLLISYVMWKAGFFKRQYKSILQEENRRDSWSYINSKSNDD
Chain of VLA-4 (P05556 21-798): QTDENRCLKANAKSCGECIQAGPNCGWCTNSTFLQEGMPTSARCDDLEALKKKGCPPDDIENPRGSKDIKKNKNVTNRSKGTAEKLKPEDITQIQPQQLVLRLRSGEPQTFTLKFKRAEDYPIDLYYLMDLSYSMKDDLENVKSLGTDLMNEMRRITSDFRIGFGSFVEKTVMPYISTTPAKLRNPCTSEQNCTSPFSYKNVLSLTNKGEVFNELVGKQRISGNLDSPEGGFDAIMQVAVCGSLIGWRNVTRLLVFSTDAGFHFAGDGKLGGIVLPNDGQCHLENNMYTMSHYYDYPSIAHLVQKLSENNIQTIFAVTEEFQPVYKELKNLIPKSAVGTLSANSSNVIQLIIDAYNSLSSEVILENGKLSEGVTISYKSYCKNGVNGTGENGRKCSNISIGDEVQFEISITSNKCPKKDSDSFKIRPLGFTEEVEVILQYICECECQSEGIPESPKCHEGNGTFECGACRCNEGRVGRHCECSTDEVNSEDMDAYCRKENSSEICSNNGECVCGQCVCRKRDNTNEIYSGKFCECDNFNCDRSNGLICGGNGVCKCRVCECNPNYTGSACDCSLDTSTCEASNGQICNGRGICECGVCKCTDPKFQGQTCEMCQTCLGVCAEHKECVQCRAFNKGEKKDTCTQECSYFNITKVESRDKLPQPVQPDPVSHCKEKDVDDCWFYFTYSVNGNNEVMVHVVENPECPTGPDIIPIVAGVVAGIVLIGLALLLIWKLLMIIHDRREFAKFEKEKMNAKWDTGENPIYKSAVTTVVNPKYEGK

Molecule: c1cc(CN2CCCNCCNCCCNCC2)ccc1CN1CCCNCCNCCCNCC1 [AMD3100, plerixafor]
- increase of mobilized LSK (WBC, LSK and SLAM HSC [1]; addition of AMD3100 to the standard G-CSF treatment): 3 fold
- time of peak of mobilization of WBC, LSK and SLAM HSC (WBC, LSK and SLAM HSC [1]; post injection, PB analysis): around 3 hours

Molecule: c1ccc(CNCc2ccc(CN3CCCNCCNCCCNCC3)cc2)nc1 [AMD3465]
- exchange efficiency ([2]; AMD3100 or AMD3465, donor cells transplanted at the peak of mobilization): remained unchanged
- mobilization efficiency ([2]; AMD3465 compared to AMD3100 in the standard protocol with G-CSF and BIO5192): not affected

Molecule: Cc1ccccc1NC(=O)Nc1ccc(CC(=O)N(C)[C@@H](CC(C)C)C(=O)NCC[C@H](NC(=O)[C@@H]2CCCN2S(=O)(=O)c2cc(Cl)cc(Cl)c2)C(=O)O)cc1 [BIO5192]
- additional increase of SLAM HSC over G7A levels (WBC, LSK and SLAM HSC [3]): 2 fold
- donor chimerism, median (CD45.1 Lin^− donor cells): 30%
- further increase of mobilized LSK (WBC, LSK and SLAM HSC [1]; BIO5192 added to G-CSF and AMD3100): 5 fold
- affinity for VLA-4 higher than for the related α4β7 integrin (VLA-4): 250- to 1000 fold

B1: G-CSF: granulocyte colony-stimulating factor (Lenograstim) delivered by osmotic pump (protein, UniProt P09919 31-207, looked up)
Granulocyte …: TPLGPASSLPQSFLLKCLEQVRKIQGDGAALQEKLVSECATYKLCHPEELVLLGHSLGIPWAPLSSCPSQALQLAGCLSQLHSGLFLYQGLLQALEGISPELGPTLDTLQLDVADFATTIWQQMEELGMAPALQPTQGAMPAFASAFQRRAGGVLVASHLQSFLEVSYRVLRHLAQP
- blood neutrophils and monocytes counts (WBC, LSK and SLAM HSC [1]; PB after mobilization protocols): highly increased
- level of CXCR4 expression on circulating SLAM HSC (WBC, LSK and SLAM HSC [1]; with versus without G-CSF mobilization): lower
- MMP9 in the BM stroma (MMP9): increased
- CXCL12 in the BM stroma (CXCL12): decreased
